How the values were obtained:
Sprague-Dawley rats [1] = experiment: animal or person; assay type: in vivo; settings: rats; for ED50: Rattus norvegicus, LORR, up and down method, tail vein, class symbols, read-out: ED50
From the text: Evaluating indicator: The end point of anesthesia: the disappearance of forepaw righting reflex (lorr) was used as the end point of anesthesia; General anesthesia effect: the disappearance of forepaw righting reflex in rats lasting for 30 seconds is taken as the index of general anesthesia effect; Anesthesia recovery index: the recovery of rat forepaw righting reflex was used as the index of anesthesia recovery.

Sprague-Dawley rats [2] = assay type: in vivo; settings: tail vein
Sprague-Dawley rats [3] = experiment: Pharmacological effect and adverse reactions under the equivalent dose (2ED50), Group D compounds; assay type: in vivo; settings: for Righting reflex duration / Sedation duration / Onset time: 2ED50, tail vein, rats, n=8; for Adverse reaction: Convulsions / Adverse reaction: Cough, broken-winded / Adverse reaction: Euphoria / Adverse reaction: Four limbs rigidity / Adverse reaction: Red urine / Adverse reaction: Slower breathing, Tetany convulsion / Adverse reaction: Systemic stiffness, Convulsions, Opisthotonus / Adverse reaction: Tongue stretching / Adverse reaction: Tremor: equivalent dose (2 × ED50), number of rats of n = 8
From the text: Evaluation index: onset time: from the completion of drug injection to the disappearance of forepaw righting reflex in rats; Duration of anesthesia: the time from the disappearance of rat forepaw righting reflex to the recovery of rat forepaw righting reflex; Recovery time of anesthesia: the time from the […] to complete recovery;

SD rats = settings: for After the infusion is stopped: Righting reflex recovery time / Recovery time after stopping infusion: after 1 hour continuous infusion at 2 times the MIR; for After the infusion is stopped: Righting reflex recovery time / Recovery time after stopping infusion / Sedation onset time: SD rats; for Sedation onset time: continuous tail vein infusion at 2 times the MIR
Protocol: Experimental Methods: Adult male SD rats with body weight ranging from 250 g to 350 g were selected for continuous infusion test.
Evaluation indexes: the time from the beginning of continuous infusion to the […] of sedation in rats; the time from the cessation of infusion to the restoration of the forepaw turning reflex after 1 hour of continuous infusion; the time from the cessation of infusion to the complete restoration of rats after 1 hour of continuous infusion.

[4] = continuous infusion 2 x MIR 1 hour, rats affected/rats

Compound	ED50 (Sprague-Dawley rats [1])	Approximate therapeutic index (Sprague-Dawley rats [1])	Minimal lethal dose (Sprague-Dawley rats [2])	Righting reflex duration (Sprague-Dawley rats [3])	Sedation duration (Sprague-Dawley rats [3])	Onset time (Sprague-Dawley rats [3]; unit min)	Adverse reaction: Convulsions (Sprague-Dawley rats [3])	Adverse reaction: Cough, broken-winded (Sprague-Dawley rats [3])	Adverse reaction: Euphoria (Sprague-Dawley rats [3])	Adverse reaction: Four limbs rigidity (Sprague-Dawley rats [3])	Adverse reaction: Red urine (Sprague-Dawley rats [3])	Adverse reaction: Slower breathing, Tetany convulsion (Sprague-Dawley rats [3])	Adverse reaction: Systemic stiffness, Convulsions, Opisthotonus (Sprague-Dawley rats [3])	Adverse reaction: Tongue stretching (Sprague-Dawley rats [3])	Adverse reaction: Tremor (Sprague-Dawley rats [3])	After the infusion is stopped: Righting reflex recovery time (SD rats)	Recovery time after stopping infusion (SD rats)	Types and incidence of adverse reactions: Red urine (SD rats; [4])	Types and incidence of adverse reactions: Tremor (SD rats; [4])	Sedation onset time (SD rats)	further results
CCOC(=O)C(=O)c1cncn1[C@H](C)c1ccccc1 [Compound D81]	0.5 to 1 mg/kg	>15.2	>12.6 mg/kg	1.35 ± 0.12 min	4.87 ± 0.39 min	<1 min	0	0	0	1	8	0	0	0	1	13 to 14 min	15 to 25 min	6/6	2/6	<5 min	Types and incidence of adverse reactions: the four limbs rigidity (SD rats; [4]): the four limbs rigidity(2/6)
COC(OC)(OC)C(=O)c1cncn1[C@H](C)c1ccccc1 [Compound D77]	0.04 to 0.5 mg/kg	>21.0	>1.4 mg/kg	1.43 ± 0.22 min	3.68 ± 0.56 min	–	0	0	0	0	8	0	8	1	0	12 to 16 min	20 to 30 min	Red urine(6/6), Tongue	stretching(3/6), Tremor(3/6)	<5 min	Onset time (Sprague-Dawley rats [3]; unit s): <0.5 min; Types and incidence of adverse reactions: Tongue stretching (SD rats; [4]): stretching(3/6), Tremor(3/6)
COC(OC)(OC)C(=O)c1cc(F)nn1[C@H](C)c1ccccc1 [Compound D17]	0.5 to 1 mg/kg	>4.5	>11.9 mg/kg	0.86 ± 0.23 min	5.48 ± 0.50 min	<1 min	0	0	0	1	8	0	0	0	0	15 to 22 min	25 to 35 min	6/6	1/6	<5 min	–
COC(OC)(OC)C(=O)c1c(F)cnn1[C@H](C)c1ccccc1 [Compound D29]	0.04 to 0.5 mg/kg	>4.1	>3.6 mg/kg	1.24 ± 0.06 min	2.26 ± 0.59 min	–	0	0	0	3	8	0	0	0	4	12 to 20 min	20 to 25 min	Red urine(6/6), Tongue	–	<5 min	Onset time (Sprague-Dawley rats [3]; unit s): <0.5 min; Types and incidence of adverse reactions: Tongue stretching (SD rats; [4]): stretching(4/6)

Source: patent US12570612B2, “Substituted nitrogen heterocyclic compound and anesthetic effect thereof” (priority 2019, dated 2026)
